According to the NIST ThermoML archive (doi:10.1016/j.fluid.2012.12.008):

Conditions: Liquid; for mass density: Vibrating tube method; for thermal conductivity: Hot wire method

CCCCCC[n+]1ccccc1.F[B-](F)(F)F [1-hexylpyridinium tetrafluoroborate]
Conditions | mass density, 293.15 K [kg/m3] | mass density, 303.15 K [kg/m3] | mass density, 313.15 K [kg/m3] | mass density, 323.15 K [kg/m3] | mass density, 333.15 K [kg/m3] | mass density, 343.15 K [kg/m3] | mass density, 353.15 K [kg/m3] | thermal conductivity, 294.2 K [W/m/K] | thermal conductivity, 314.3 K [W/m/K] | thermal conductivity, 334.3 K [W/m/K]
100 kPa | 1157 | 1150.3 | 1143.5 | 1137 | 1130 | 1123.4 | 1116.8 | 0.163 | 0.163 | 0.161
5000 kPa | 1159.5 | 1152.9 | 1146.1 | 1139.7 | 1132.7 | 1126 | 1119.5 | – | – | –
10000 kPa | 1161.8 | 1155.3 | 1148.7 | 1142.2 | 1135.2 | 1128.7 | 1122.3 | 0.165 | 0.163 | 0.162
15000 kPa | 1164.1 | 1157.6 | 1151.1 | 1144.5 | 1137.8 | 1131.2 | 1125 | – | – | –
20000 kPa | 1166.5 | 1159.9 | 1153.4 | 1146.9 | 1140.3 | 1133.8 | 1127.6 | 0.166 | 0.164 | 0.163

CCCCCCCC[n+]1ccccc1.F[B-](F)(F)F [1-octylpyridinium tetrafluoroborate]
Conditions | mass density, 293.15 K [kg/m3] | mass density, 303.15 K [kg/m3] | mass density, 313.15 K [kg/m3] | mass density, 323.15 K [kg/m3] | mass density, 333.15 K [kg/m3] | mass density, 343.15 K [kg/m3] | mass density, 353.15 K [kg/m3] | thermal conductivity, 294.2 K [W/m/K] | thermal conductivity, 314.3 K [W/m/K] | thermal conductivity, 334.3 K [W/m/K]
100 kPa | 1111.2 | 1104.4 | 1097.6 | 1091.1 | 1084.4 | 1077.9 | 1071.6 | 0.16 | 0.16 | 0.158
5000 kPa | 1113.8 | 1107.1 | 1100.3 | 1093.9 | 1087.1 | 1080.7 | 1074.4 | – | – | –
10000 kPa | 1116.2 | 1109.6 | 1103 | 1096.6 | 1089.9 | 1083.6 | 1077.3 | 0.163 | 0.161 | 0.159
15000 kPa | 1118.6 | 1112.1 | 1105.4 | 1099 | 1092.6 | 1086.2 | 1080.1 | – | – | –
20000 kPa | 1120.9 | 1114.4 | 1107.8 | 1101.5 | 1095.2 | 1089 | 1083 | 0.165 | 0.164 | 0.161

CCCC[n+]1ccccc1.F[B-](F)(F)F [1-butylpyridinium tetrafluoroborate]
Conditions | mass density, 293.15 K [kg/m3] | mass density, 303.15 K [kg/m3] | mass density, 313.15 K [kg/m3] | mass density, 323.15 K [kg/m3] | mass density, 333.15 K [kg/m3] | mass density, 343.15 K [kg/m3] | mass density, 353.15 K [kg/m3] | thermal conductivity, 294.2 K [W/m/K] | thermal conductivity, 314.3 K [W/m/K] | thermal conductivity, 334.3 K [W/m/K]
100 kPa | 1216.5 | 1209.5 | 1202.6 | 1196 | 1188.9 | 1182 | 1175.4 | 0.171 | 0.17 | 0.169
5000 kPa | 1219 | 1211.9 | 1205.1 | 1198.5 | 1191.4 | 1184.5 | 1177.9 | – | – | –
10000 kPa | 1221.1 | 1214.3 | 1207.6 | 1200.9 | 1193.9 | 1187 | 1180.6 | 0.171 | 0.171 | 0.171
15000 kPa | 1223.4 | 1216.4 | 1209.9 | 1203.2 | 1196.4 | 1189.5 | 1183.3 | – | – | –
20000 kPa | 1225.5 | 1218.7 | 1212 | 1205.5 | 1198.8 | 1191.9 | 1185.8 | 0.173 | 0.173 | 0.172
